Data published in patent US11498928B2, “Macrocyclic spiroethers as Mcl-1 inhibitors” (ASCENTAGE PHARMA (SUZHOU) CO., LTD., priority 2019, dated 2022).
pIC50: −log10 of the molar value.

Experiments:
[1] = target: T1, Mcl-1 protein (residues 171-323) (Homo sapiens, UniProt Q07820); experiment: Inhibition of Mcl-1 by fluorescence polarization (FP) competitive binding assay with FAM-Bid tracer; details: 2 nM FAM-Bid, 20 nM Mcl-1, 30 min
T1 construct: Tag-free Mcl-1 protein (residues 171-323) was used in the FP assay
In short: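 Ten-point compound titrations compete against 2 nM fluorescein-Bid for 20 nM Mcl-1 (171-323, untagged). Incubation 30 min RT in PBS buffer with BGG and Triton, 5% DMSO final. mP reduction fitted by sigmoidal nonlinear regression for IC50.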

OPM-2 cells = experiment: Cell viability assay (OPM-2 cells), CCK-8; format: cell-based; details: Homo sapiens, OPM-2, 24 h, 5% FBS
In short: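 Viability read by CCK-8 absorbance (450 nm, 4 h reagent incubation) after 24 h compound exposure of 20000 OPM-2 cells per well at 37 °C. IC50 fitted by nonlinear regression on vehicle-normalized signal.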

NCI-H929 cells = experiment: Cell viability assay (NCI-H929 cells), CCK-8; format: cell-based; details: Homo sapiens, NCI-H929, 24 h, 5% FBS
In short: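 Viability of NCI-H929 cells was measured using the Cell Counting Kit-8. After 24 hrs of compound exposure, 10 μL of CCK-8 solution per well was incubated for 1-4 hours, and absorbance was read at 450 nm on a BioTek Synergy 1MF. Readings were normalized to vehicle (DMSO) cells, and IC50 values were derived by nonlinear regression in GraphPad Prism 6.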

T1 sequence (Q07820 171-323): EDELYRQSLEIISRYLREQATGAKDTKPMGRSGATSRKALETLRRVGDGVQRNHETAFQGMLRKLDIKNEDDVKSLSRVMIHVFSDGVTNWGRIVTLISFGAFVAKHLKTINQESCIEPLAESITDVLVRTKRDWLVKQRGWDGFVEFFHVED

pIC50 [1] | pIC50 (NCI-H929 cells) | SMILES | pIC50 (OPM-2 cells)
7.85 | 8.11 | CO[C@@]1(CN2CCN(C)C(=O)C2)C2=C[C@@H](C2)[C@H](C)[C@@H](C)S(=O)(=O)NC(=O)c2ccc3c(c2)N(C[C@@H]2CC[C@H]21)C[C@@]1(CCCc2c1ccc(Cl)c2F)CO3 [compound 39, (1S,11′R,12′S,13′R,16′R,16a′R,18a′R,E)-6-chloro-5-fluoro-16′-methoxy-11′,12′-dimethyl-16′-((4-methyl-3-oxopiperazin-1-yl)methyl)-3,4,12′,13′,16′,16a′,17′,18′,18a′,19′-decahydro-1′H,2H,3′H, 11′H-spiro[naphthalene-1,2′-[5,7]etheno[13,15]methanocyclobuta[i][1,4]oxazepino[3,4-f][1]thia[2,7]diazacyclohexadecin]-8′(9′H)-one 10′,10′-dioxide] | 7.21
7.77 | 8.59 | CO[C@@]1(CN2C[C@@H](C)N(C)[C@@H](C)C2)C2=C[C@@H](C2)[C@H](C)[C@@H](C)S(=O)(=O)NC(=O)c2ccc3c(c2)N(C[C@@H]2CC[C@H]21)C[C@@]1(CCCc2c1ccc(Cl)c2F)CO3 [compound 40, (1S,11′R,12′S,13′R,16′R,16a′R,18a′R,E)-6-chloro-5-fluoro-16′-methoxy-11′,12′-dimethyl-16′-(((3S,5R)-3,4,5-trimethylpiperazin-1-yl)methyl)-3,4,12′,13′,16′,16a′,17′,18′,18a′,19′-decahydro-1′H,2H,3′H,11′H-spiro[naphthalene-1,2′-[5,7]etheno[13,15]methanocyclobuta[i][1,4]oxazepino[3,4-f][1]thia[2,7]diazacyclohexadecin]-8′(9′H)-one 10′,10′-dioxide] | 7.26
7.59 | 6.72 | CO[C@@]1(CN2CCNCC2)C2=C[C@@H](C2)[C@H](C)[C@@H](C)S(=O)(=O)NC(=O)c2ccc3c(c2)N(C[C@@H]2CC[C@H]21)C[C@@]1(CCCc2c1ccc(Cl)c2F)CO3 [compound 41, (1S,11′R,12′S,13′R,16′R,16a′R,18a′R,E)-6-chloro-5-fluoro-16′-methoxy-11′,12′-dimethyl-16′-(piperazin-1-ylmethyl)-3,4,12′,13′,16′,16a′,17′,18′,18a′,19′-decahydro-1′H,2H,3′H, 11′H-spiro[naphthalene-1,2′-[5,7]etheno[13,15]methanocyclobuta[i][1,4]oxazepino[3,4-f][1]thia[2,7]diazacyclohexadecin]-8′(9′H)-one 10′,10′-dioxide] | 6.81
7.89 | 7.29 | CO[C@@]1(CN2CCNC(=O)C2)C2=C[C@@H](C2)[C@H](C)[C@@H](C)S(=O)(=O)NC(=O)c2ccc3c(c2)N(C[C@@H]2CC[C@H]21)C[C@@]1(CCCc2c1ccc(Cl)c2F)CO3 [compound 42, (1S,11′R,12′S,13′R,16′R,16a′R,18a′R,E)-6-chloro-5-fluoro-16′-methoxy-11′,12′-dimethyl-16′-((3-oxopiperazin-1-yl)methyl)-3,4,12′,13′,16′,16a′,17′,18′,18a′,19′-decahydro-1′H,2H,3′H, 11′H-spiro[naphthalene-1,2′-[5,7]etheno[13,15]methanocyclobuta[i][1,4]oxazepino[3,4-f][1]thia[2,7]diazacyclohexadecin]-8′(9′H)-one 10′,10′-dioxide] | 7.18
7.82 | 7.46 | CO[C@@]1(CN2C[C@@H](C)N[C@@H](C)C2)C2=C[C@@H](C2)[C@H](C)[C@@H](C)S(=O)(=O)NC(=O)c2ccc3c(c2)N(C[C@@H]2CC[C@H]21)C[C@@]1(CCCc2c1ccc(Cl)c2F)CO3 [compound 43, (1S,11′R,12′S,13′R,16′R,16a′R,18a′R,E)-6-chloro-16′-(((3S,5R)-3,5-dimethylpiperazin-1-yl)methyl)-5-fluoro-16′-methoxy-11′,12′-dimethyl-3,4,12′,13′,16′,16a′,17′,18′,18a′,19′-decahydro-1′H,2H,3′H,11′H-spiro[naphthalene-1,2′-[5,7]etheno[13,15]methanocyclobuta[i][1,4]oxazepino[3,4-f][1]thia[2,7]diazacyclohexadecin]-8′(9′H)-one 10′,10′-dioxide] | 7.33
7.96 | 7.77 | CCO[C@@]1(CN2CCN3CCOC[C@@H]3C2)C2=C[C@@H](C2)[C@H](C)[C@@H](C)S(=O)(=O)NC(=O)c2ccc3c(c2)N(C[C@@H]2CC[C@H]21)C[C@@]1(CCCc2c1ccc(Cl)c2F)CO3 [compound 44, (1S,11′R,12′S,13′R,16′R,16a′R,18a′R,E)-6-chloro-16′-ethoxy-5-fluoro-16′-(((S)-hexahydropyrazino[2,1-c][1,4]oxazin-8(1H)-yl)methyl)-11′,12′-dimethyl-3,4,12,′13′,16′,16a′,17′,18′,18a′,19′-decahydro-1′H,2H,3′H,11′H-spiro[naphthalene-1,2′-[5,7]etheno[13,15]methanocyclobuta[i][1,4]oxazepino[3,4-f][1]thia[2,7]diazacyclohexadecin]-8′(9′H)-one 10′,10′-dioxide] | 7.32
7.82 | 7.34 | CCO[C@@]1(CN2CCN3CCOC[C@H]3C2)C2=C[C@@H](C2)[C@H](C)[C@@H](C)S(=O)(=O)NC(=O)c2ccc3c(c2)N(C[C@@H]2CC[C@H]21)C[C@@]1(CCCc2c1ccc(Cl)c2F)CO3 [compound 45, (1S,11′R,12′S,13′R,16′R,16a′R,18a′R,E)-6-chloro-16′-ethoxy-5-fluoro-16′-(((R)-hexahydropyrazino[2,1-c][1,4]oxazin-8(1H)-yl)methyl)-11′,12′-dimethyl-3,4,12,′13′,16′,16a′,17′,18′,18a′,19′-decahydro-1′H,2H,3′H,11′H-spiro[naphthalene-1,2′-[5,7]etheno[13,15]methanocyclobuta[i][1,4]oxazepino[3,4-f][1]thia[2,7]diazacyclohexadecin]-8′(9′H)-one 10′,10′-dioxide] | 6.98
7.89 | 6.70 | CCO[C@@]1(C(=O)N2CCN3CCOC[C@@H]3C2)C2=C[C@@H](C2)[C@H](C)[C@@H](C)S(=O)(=O)NC(=O)c2ccc3c(c2)N(C[C@@H]2CC[C@H]21)C[C@@]1(CCCc2c1ccc(Cl)c2F)CO3 [compound 46, (1S,11′R,12′S,13′R,16′R,16a′R,18a′R,E)-6-chloro-16′-ethoxy-5-fluoro-11′,12′-dimethyl-16′-((S)-octahydropyrazino[2,1-c][1,4]oxazine-8-carbonyl)-3,4,12′,13′,16′,16a′,17′,18′,18a′,19′-decahydro-1′H,2H,3′H,11′H-spiro[naphthalene-1,2′-[5,7]etheno[13,15]methanocyclobuta[i][1,4]oxazepino[3,4-f][1]thia[2,7]diazacyclohexadecin]-8′(9′H)-one 10′,10′-dioxide] | 6.49
7.89 | 8.24 | C[C@@H]1[C@@H](C)S(=O)(=O)NC(=O)c2ccc3c(c2)N(C[C@@H]2CC[C@H]2[C@](O)(CN2CCN4CCOC[C@@H]4C2)C2=C[C@H]1C2)C[C@@]1(CCCc2c1ccc(Cl)c2F)CO3 [compound 47, (1S,11′R,12′S,13′R,16′R,16a′R,18a′R,E)-6-chloro-5-fluoro-16′-(((S)-hexahydropyrazino[2,1-c][1,4]oxazin-8(1H)-yl)methyl)-16′-hydroxy-11′,12′-dimethyl-3,4,12,′13′,16′,16a′,17′,18′,18a′,19′-decahydro-1′H,2H,3′H,11′H-spiro[naphthalene-1,2′-[5,7]etheno[13,15]methanocyclobuta[i][1,4]oxazepino[3,4-f][1]thia[2,7]diazacyclohexadecin]-8′(9′H)-one 10′,10′-dioxide] | 7.49
7.74 | 7.55 | C[C@@H]1[C@@H](C)S(=O)(=O)NC(=O)c2ccc3c(c2)N(C[C@@H]2CC[C@H]2[C@](O)(CN2CCN4CCOC[C@H]4C2)C2=C[C@H]1C2)C[C@@]1(CCCc2c1ccc(Cl)c2F)CO3 [compound 48, (1S,11′R,12′S,13′R,16′R,16a′R,18a′R,E)-6-chloro-5-fluoro-16′-(((R)-hexahydropyrazino[2,1-c][1,4]oxazin-8(1H)-yl)methyl)-16′-hydroxy-11′,12′-dimethyl-3,4,12,′13′,16′,16a′,17′,18′,18a′,19′-decahydro-1′H,2H,3′H,11′H-spiro[naphthalene-1,2′-[5,7]etheno[13,15]methanocyclobuta[i][1,4]oxazepino[3,4-f][1]thia[2,7]diazacyclohexadecin]-8′(9′H)-one 10′,10′-dioxide] | 7.16
7.96 | 7.92 | CO[C@@]1(CN2CCN(C(C)=O)CC2)C2=C[C@@H](C2)[C@H](C)[C@@H](C)S(=O)(=O)NC(=O)c2ccc3c(c2)N(C[C@@H]2CC[C@H]21)C[C@@]1(CCCc2c1ccc(Cl)c2F)CO3 [compound 49] | 6.73
7.96 | 7.96 | CO[C@@]1(CN2CCN(C3COC3)CC2)C2=C[C@@H](C2)[C@H](C)[C@@H](C)S(=O)(=O)NC(=O)c2ccc3c(c2)N(C[C@@H]2CC[C@H]21)C[C@@]1(CCCc2c1ccc(Cl)c2F)CO3 [compound 50] | 7.55
